In US11839658B2, “Aminoglycoside derivatives and nano-assemblies thereof, including those with quorum sensing inhibitory function” (priority 2017, dated 2023):
In brackets after ≈: the same amount, converted by molar mass.

Key:
[1] = tested on: P. aeruginosa strain PA14 (wild type); experiment: MIC assay against Pseudomonas aeruginosa; assay type: cell-based; settings: PA14, read-out: MIC-90 against PA14
Experimental: The minimum inhibitory concentration (MIC) of the of the tobramycin containing nano-assemblies of example 2 against the P. aeruginosa strain PA14 (wild type) was tested and compared to known MIC values of tobramycin.

[2] = tested on: 24 hours old PA14 biofilm; experiment: Minimum Biofilm Eradicating Concentration (MBEC) assay; assay type: cell-based, Pseudomonas aeruginosa; settings: 24 h old PA14 biofilm treated 24 hours
Experimental: Minimum Biofilm Eradicating Concentration (MBEC) assay was used to determine the minimum concentration of active agents at which a 24 hours old PA14 biofilm is completely eradicated. The MBEC assay was performed as follows: […]
The 96 well-plates were then kept at 37° C. without shaking for 24 hours to allow the forming of biofilm. Afterwards, the planktonic bacteria were removed, and the 24 hours old biofilm was washed twice with PBS, then fed with fresh PPGAS medium, and ready for the assay. […]
All cultures were incubated for an additional 24 hours at 37° C. without shaking. […] All cultures were then measured OD650, and the biofilm is considered to be completely eradicated once the resulting OD650 is equal or lower than OD650 of PPGAS medium.

E. coli = settings: literature value; cited from earlier work
[3] = tested on: Pyocyanin released from PA14 bacteria (wild type); experiment: Pyocyanin assay on Pseudomonas aeruginosa; assay type: cell-based; settings: 18 μg/mL Farnesal or Farnesol, 16 h, n=9
Experimental: Pyocyanin assay was used to quantify the amount of Pyocyanin molecule released from PA14 bacteria (wild type) which were grown aerobically for 16 hours. The Pyocyanin assay was performed as follows:
A single colony of PA14 was removed from agar plates after 16 hours of growth at 37° C. and transferred into 25 mL Erlenmeyer flasks with 10 mL of PPGAS (proteose peptone glucose ammonium salt medium which is composed of (1 g/L NH4Cl, 1.5 g/L KCl, 19 g/L Tris-HCl, 10 g/L peptone, glucose 5 g/L and 0.1 g/L MgSO4·7H2O, the medium was adjusted to pH 7.4, and sterilized before use). Following 16 hours of aerobic growth with shaking at 200 rpm and 37° C., cultures were centrifuged at 7.450 g, washed twice with 10 mL of fresh PPGAS medium, and resuspended to a final volume of 5 mL solution. Cultures were then diluted to a final OD600 of 0.02 and distributed into 24 well-plates, 1.5 mL each well.
Compounds Farnesal and Farnesol were diluted in DMSO, then added to wells containing PA14 bacteria, in 1:100 dilutions with a final DMSO concentration of 1% (v/v), so that the final concentration of Farnesal was 18 μg/mL, and of Farnesol was 18 μg/mL. […]
All cultures were incubated for an additional 16 h under aerobic conditions as mentioned above. […] OD520 was measured in the aqueous phase. […]

[4] = Dynamic light scattering (DLS): zeta-potential, mean diameter, PDI of nano-assemblies; assay type: physicochemical

SMILES: NC[C@H]1O[C@H](O[C@H]2[C@H](O)[C@@H](O[C@H]3O[C@H](CO)[C@@H](O)[C@H](N)[C@H]3O)[C@H](N)C[C@@H]2N)[C@H](N)C[C@@H]1O [Tobramycin]
- MIC90 [1]: 6.25 to 12.5 µg/mL (≈ 13.4 to 26.7 µM)
- Tobramycin concentration needed for complete biofilm eradication (MBEC) [2]: ≥ 100 µg/mL
- MIC-90 against E. coli (Dienstag and Neu) (E. coli): 6.25 µg/mL (≈ 13.4 µM)

SMILES: CC(C)=CCCC(C)=CCCC(C)=CCO [Farnesol]
- percentage inhibition of released Pyocyanin vs PA14 wt control [3]: 12.29±7.35%

SMILES: CC(C)=CCCC(C)=CCCC(C)=CC=O [Farnesal]
- zeta-potential [4]: −33.8±0.5 mV
- percentage inhibition of released Pyocyanin vs PA14 wt control [3]: 5.85±3.10%
